Measurements from BindingDB's records for PubMed 35785990 (Sage Therapeutics, 2022).

Molecular target: Inward rectifier potassium channel 2 (Homo sapiens) (UniProt P63252)
Experiment: Inhibition of Kir2.1 (unknown origin) by patch clamp method

Inward rectifier potassium channel 2 (Homo sapiens), sequence (P63252 whole entry, looked up): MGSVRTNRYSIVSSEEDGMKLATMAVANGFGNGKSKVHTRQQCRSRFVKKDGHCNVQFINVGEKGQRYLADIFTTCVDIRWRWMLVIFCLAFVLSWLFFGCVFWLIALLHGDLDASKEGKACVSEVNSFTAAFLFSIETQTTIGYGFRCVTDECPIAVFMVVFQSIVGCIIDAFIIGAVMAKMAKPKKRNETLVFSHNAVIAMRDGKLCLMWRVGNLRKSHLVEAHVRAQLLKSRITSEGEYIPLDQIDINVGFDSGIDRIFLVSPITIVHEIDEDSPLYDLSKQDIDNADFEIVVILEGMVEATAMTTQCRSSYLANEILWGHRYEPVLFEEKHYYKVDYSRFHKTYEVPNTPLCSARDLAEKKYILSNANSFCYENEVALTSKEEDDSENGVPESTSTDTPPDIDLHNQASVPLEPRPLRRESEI

C[C@H](CC[C@](C)(O)C(F)(F)F)[C@H]1CC[C@H]2[C@@H]3CC=C4C[C@@](C)(O)CC[C@]4(C)[C@H]3CC[C@]12C [Dalzanemdor]
IC50: > 30 µM
